Values quoted from earlier work as cited in US6479236B2, “Genotyping the human UDP-glucuronosyltransferase 1 (UGT1) gene” (DNA Sciences Laboratories, Inc., priority 1998, dated 2002).

How the values were obtained:
UGT1*7 = biological target: T1, UGT1*7 (Homo sapiens, UniProt O60656); details: substrate of UGT1*7
T1 sequence (O60656 26-530): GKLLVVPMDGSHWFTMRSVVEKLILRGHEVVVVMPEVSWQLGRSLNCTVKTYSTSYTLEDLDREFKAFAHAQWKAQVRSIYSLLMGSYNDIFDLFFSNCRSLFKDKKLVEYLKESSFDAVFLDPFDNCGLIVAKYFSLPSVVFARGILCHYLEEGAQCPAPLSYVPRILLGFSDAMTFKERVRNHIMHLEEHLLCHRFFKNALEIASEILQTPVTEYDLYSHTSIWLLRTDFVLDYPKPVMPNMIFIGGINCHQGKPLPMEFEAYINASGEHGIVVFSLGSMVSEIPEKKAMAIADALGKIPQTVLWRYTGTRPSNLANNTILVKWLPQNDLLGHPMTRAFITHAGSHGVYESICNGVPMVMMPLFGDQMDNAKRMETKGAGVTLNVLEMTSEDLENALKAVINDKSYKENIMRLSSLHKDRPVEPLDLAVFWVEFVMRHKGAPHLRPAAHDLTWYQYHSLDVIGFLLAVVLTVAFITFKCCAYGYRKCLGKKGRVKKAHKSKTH

UGT1*1 = biological target: T2, UGT1*1 (Homo sapiens, UniProt P22309); details: for binding to UGT1*1 compared with bilirubin: relative to the endogenous substrate bilirubin; for Km: substrate of UGT1*1
T2 sequence (P22309 26-533): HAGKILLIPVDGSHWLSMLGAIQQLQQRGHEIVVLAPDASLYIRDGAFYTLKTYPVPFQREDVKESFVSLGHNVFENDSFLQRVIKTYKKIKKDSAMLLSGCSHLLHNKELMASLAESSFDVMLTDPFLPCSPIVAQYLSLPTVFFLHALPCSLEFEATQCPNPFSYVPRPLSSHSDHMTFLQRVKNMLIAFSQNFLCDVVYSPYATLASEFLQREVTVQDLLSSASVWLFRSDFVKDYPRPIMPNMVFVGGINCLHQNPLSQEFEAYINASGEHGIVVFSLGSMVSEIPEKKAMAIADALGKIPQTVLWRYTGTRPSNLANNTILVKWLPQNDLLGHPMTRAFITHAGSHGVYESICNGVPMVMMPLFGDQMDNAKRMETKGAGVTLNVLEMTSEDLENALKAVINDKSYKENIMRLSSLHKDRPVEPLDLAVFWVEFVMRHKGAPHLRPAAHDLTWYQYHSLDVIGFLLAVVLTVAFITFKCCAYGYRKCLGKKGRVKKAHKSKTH

UGT1*6 = UGT1*6 (Homo sapiens, UniProt P19224); details: substrate of UGT1*6

Row | SMILES | binding to UGT1*1 compared with bilirubin (UGT1*1) | Km (UGT1*1) [µM] | Km (UGT1*6) [µM] | Km (UGT1*7) [µM]
1 | CC(C)c1cccc(C(C)C)c1O [Propofol] | – | – | – | 172
2 | O=C(O)[C@H]1O[C@H](OP(=O)(O)OP(=O)(O)OC[C@H]2O[C@@H](n3ccc(=O)[nH]c3=O)[C@H](O)[C@@H]2O)[C@H](O)[C@@H](O)[C@@H]1O [UDPGA] | – | 410 | – | 410
3 | Cc1cc(O)c2c(c1)C(=O)c1cc(O)cc(O)c1C2=O [emodin] | more readily binds | – | – | –

Continued, in another order:

Row | binding to UGT1*1 compared with bilirubin (UGT1*1) | Km (UGT1*1) [µM] | Km (UGT1*6) [µM] | SMILES | Km (UGT1*7) [µM]
4 | more readily binds | 162 | – | CCCCCCCCOC(=O)c1cc(O)c(O)c(O)c1 [Octyl gallate] | 158
5 | – | – | 2000 | CC(=O)Nc1ccc(O)cc1 [Acetaminophen] | 50000
6 | – | 24 | – | C=CC1=C(C)/C(=C/c2[nH]c(Cc3[nH]c(/C=C4\NC(=O)C(C)=C4C=C)c(C)c3CCC(=O)O)c(CCC(=O)O)c2C)NC1=O [Bilirubin] | –
